Test results taken from ChEMBL document CHEMBL5537122, “Design, synthesis, and biological evaluation of 4-(2-fluorophenoxy)-7-methoxyquinazoline derivatives as dual EGFR/c-Met inhibitors for the treatment of NSCLC” (Eur J Med Chem, 2024).
The source made the active and inactive calls. No cut-off for these calls is given here.

How the values were obtained:
A549 [1] = assay: Inhibition of colony formation in human A549 cells overexpressing c-MET preincubated for 48 hrs followed by media replacement for every 2 days for 14 days by crystal violet staining based microscopic analysis; type: functional, cell-based; conditions: dose 0.25-2 µM
A549 [2] = assay: Antiproliferative activity against human A549 cells overexpressing c-Met and EGFR assessed as reduction in cell viability incubated for 72 hrs by MTT assay; type: functional, cell-based; conditions: A549, 72 h
NCI-H1975 [3] = assay: Antiproliferative activity against human NCI-H1975 cells overexpressing c-Met and EGFR assessed as reduction in cell viability incubated for 72 hrs by MTT assay; type: functional, cell-based; conditions: NCI-H1975, 72 h
PC-9 = assay: Antiproliferative activity against human PC-9 cells overexpressing c-Met and EGFR assessed as reduction in cell viability incubated for 72 hrs by MTT assay; type: functional, cell-based; conditions: PC-9, 72 h
A549 [4] = assay: Induction in apoptosis in human A549 cells overexpressing c-MET assessed as viable cells at 1 uM incubated for 24 hrs by Annexin V-FITC/Propidium Iodide staining based flow cytometry analysis (reference value: 81.92 %); type: functional; conditions: read-out: Activity
A549 [5] = assay: Induction in apoptosis in human A549 cells overexpressing c-MET assessed as early apoptotic cells at 1 uM incubated for 24 hrs by Annexin V-FITC/Propidium Iodide staining based flow cytometry analysis (reference value: 7.27 %); type: functional
A549 [6] = assay: Induction in apoptosis in human A549 cells overexpressing c-MET assessed as late apoptotic cells at 1 uM incubated for 24 hrs by Annexin V-FITC/Propidium Iodide staining based flow cytometry analysis (reference value: 7.59 %); type: functional
A549 [7] = assay: Induction in apoptosis in human A549 cells overexpressing c-MET assessed as viable cells at 2.5 uM incubated for 24 hrs by Annexin V-FITC/Propidium Iodide staining based flow cytometry analysis (reference value: 81.92 %; type: functional; conditions: read-out: Activity
A549 [8] = assay: Induction in apoptosis in human A549 cells overexpressing c-MET assessed as early apoptotic cells at 2.5 uM incubated for 24 hrs by Annexin V-FITC/Propidium Iodide staining based flow cytometry analysis (reference value: 7.27 %); type: functional
A549 [9] = assay: Induction in apoptosis in human A549 cells overexpressing c-MET assessed as late apoptotic cells at 2.5 uM incubated for 24 hrs by Annexin V-FITC/Propidium Iodide staining based flow cytometry analysis (reference value: 7.59 %); type: functional
A549 [10] = assay: Induction in apoptosis in human A549 cells overexpressing c-MET assessed as necrotic cells at 2.5 uM incubated for 24 hrs by Annexin V-FITC/Propidium Iodide staining based flow cytometry analysis (reference value: 3.22 %); type: functional
NCI-H1975 [11] = assay: Induction in apoptosis in human NCI-H1975 cells assessed as viable cells at 2.5 uM incubated for 24 hrs by Annexin V-FITC/Propidium Iodide staining based flow cytometry analysis (reference value: 91.58 %); type: functional; conditions: read-out: Activity
L02 [12] = assay: Induction in apoptosis in human L02 cells assessed as early apoptotic cells at 1 uM incubated for 24 hrs by Annexin V-FITC/Propidium Iodide staining based flow cytometry analysis (reference value: 0.26 %); type: toxicity, cell-based; conditions: l02, 24 h
L02 [13] = assay: Induction in apoptosis in human L02 cells assessed as late apoptotic cells at 1 uM incubated for 24 hrs by Annexin V-FITC/Propidium Iodide staining based flow cytometry analysis (reference value: 0.36 %); type: toxicity, cell-based; conditions: l02, 24 h
L02 [14] = assay: Induction in apoptosis in human L02 cells assessed as necrotic cells at 2.5 uM incubated for 24 hrs by Annexin V-FITC/Propidium Iodide staining based flow cytometry analysis (reference value: 6.63 %); type: toxicity, cell-based; conditions: l02, 24 h
A549 [15] = assay: Induction of cell cycle arrest in human A549 cells overexpressing c-MET assessed as accumulation of cells at G1/G0 phase at 1 uM incubated for 24 hrs by RNase A/propidium iodide staining based flow cytometric analysis (reference value: 49.24 %); type: functional
A549 [16] = assay: Induction of cell cycle arrest in human A549 cells overexpressing c-MET assessed as accumulation of cells at S phase at 1 uM incubated for 24 hrs by RNase A/propidium iodide staining based flow cytometric analysis (reference value: 37.87 %); type: functional
A549 [17] = assay: Induction of cell cycle arrest in human A549 cells overexpressing c-MET assessed as accumulation of cells at G1/G0 phase at 2.5 uM incubated for 24 hrs by RNase A/propidium iodide staining based flow cytometric analysis (reference value: 49.24 %); type: functional
A549 [18] = assay: Induction of cell cycle arrest in human A549 cells overexpressing c-MET assessed as accumulation of cells at G2/M phase at 2.5 uM incubated for 24 hrs by RNase A/propidium iodide staining based flow cytometric analysis (reference value: 12.41 %); type: functional
A549 [19] = assay: Antimigratory activity against EGF-induced cell migration in serum starved human A549 cells overexpressing c-MET assessed as increase in width of artificial gap incubated for 24 hrs by wound healing assay; type: functional, cell-based; conditions: dose 1-2.5 µM
[20] = test system: Epidermal growth factor receptor (Homo sapiens), P00533 [L858R]; assay: Inhibition of EGFR L858R mutant (unknown origin) at 10 uM relative to control
[21] = target: Hepatocyte growth factor receptor (Homo sapiens, UniProt P08581); assay: Inhibition of c-MET (unknown origin) at 10 uM relative to control
[22] = target: Fibroblast growth factor receptor 3 (Homo sapiens) (UniProt P22607); assay: Inhibition of FGFR3 (unknown origin) at 10 uM
[23] = target: Serine/threonine-protein kinase Nek2 (Homo sapiens) (UniProt P51955); assay: Inhibition of NEK2 (unknown origin) at 10 uM
[24] = target: Mitogen-activated protein kinase 1 (Homo sapiens) (UniProt P28482); assay: Inhibition of MAPK1 (unknown origin) at 10 uM
[25] = Cardiotoxicity in KM mouse assessed as effect on lactate dehydrogenase level at 100 mg/kg, IG qd administered for 7 days by automatic biochemical analyzer; type: toxicity, organism-based; conditions: in vivo, po, 168 h, time 7 day
[26] = Hepatotoxicity in KM mouse assessed as effect on alanine aminotransferase level at 100 mg/kg, IG qd administered for 7 days by automatic biochemical analyzer; type: toxicity, organism-based; conditions: in vivo, po, 168 h, time 7 day
[27] = Nephrotoxicity in KM mouse assessed as effect on creatinine level at 100 mg/kg, IG qd administered for 7 days by automatic biochemical analyzer; type: toxicity, organism-based; conditions: in vivo, po, 168 h, time 7 day
[28] = Acute toxicity in KM mouse assessed as effect on total protein level at 100 mg/kg, IG qd administered for 7 days by automatic biochemical analyzer; type: organism-based; conditions: in vivo, po, 168 h, time 7 day
[29] = Acute toxicity in KM mouse assessed as effect on glucose level at 100 mg/kg, IG qd administered for 7 days by automatic biochemical analyzer; type: organism-based; conditions: in vivo, po, 168 h, time 7 day
[30] = Acute toxicity in KM mouse assessed as cell damage or necrosis in liver at 100 mg/kg, IG qa administered for 7 days and measured on day 8 by hematoxylin and eosin staining based assay; type: organism-based; conditions: in vivo, po, 192 h, time 8 day
A549 [31] = assay: Antitumor activity against human A549 cells overexpressing c-MET xenografted in BALB/c nude mouse assessed as tumor growth inhibition at 40 mg/kg, IG qod measured for 24 days relative to control; type: functional; conditions: A549, po, 576 h, time 24 day, read-out: TGI

Sequence of Epidermal growth factor receptor (Homo sapiens), P00533 [L858R] (P00533 whole entry L858R): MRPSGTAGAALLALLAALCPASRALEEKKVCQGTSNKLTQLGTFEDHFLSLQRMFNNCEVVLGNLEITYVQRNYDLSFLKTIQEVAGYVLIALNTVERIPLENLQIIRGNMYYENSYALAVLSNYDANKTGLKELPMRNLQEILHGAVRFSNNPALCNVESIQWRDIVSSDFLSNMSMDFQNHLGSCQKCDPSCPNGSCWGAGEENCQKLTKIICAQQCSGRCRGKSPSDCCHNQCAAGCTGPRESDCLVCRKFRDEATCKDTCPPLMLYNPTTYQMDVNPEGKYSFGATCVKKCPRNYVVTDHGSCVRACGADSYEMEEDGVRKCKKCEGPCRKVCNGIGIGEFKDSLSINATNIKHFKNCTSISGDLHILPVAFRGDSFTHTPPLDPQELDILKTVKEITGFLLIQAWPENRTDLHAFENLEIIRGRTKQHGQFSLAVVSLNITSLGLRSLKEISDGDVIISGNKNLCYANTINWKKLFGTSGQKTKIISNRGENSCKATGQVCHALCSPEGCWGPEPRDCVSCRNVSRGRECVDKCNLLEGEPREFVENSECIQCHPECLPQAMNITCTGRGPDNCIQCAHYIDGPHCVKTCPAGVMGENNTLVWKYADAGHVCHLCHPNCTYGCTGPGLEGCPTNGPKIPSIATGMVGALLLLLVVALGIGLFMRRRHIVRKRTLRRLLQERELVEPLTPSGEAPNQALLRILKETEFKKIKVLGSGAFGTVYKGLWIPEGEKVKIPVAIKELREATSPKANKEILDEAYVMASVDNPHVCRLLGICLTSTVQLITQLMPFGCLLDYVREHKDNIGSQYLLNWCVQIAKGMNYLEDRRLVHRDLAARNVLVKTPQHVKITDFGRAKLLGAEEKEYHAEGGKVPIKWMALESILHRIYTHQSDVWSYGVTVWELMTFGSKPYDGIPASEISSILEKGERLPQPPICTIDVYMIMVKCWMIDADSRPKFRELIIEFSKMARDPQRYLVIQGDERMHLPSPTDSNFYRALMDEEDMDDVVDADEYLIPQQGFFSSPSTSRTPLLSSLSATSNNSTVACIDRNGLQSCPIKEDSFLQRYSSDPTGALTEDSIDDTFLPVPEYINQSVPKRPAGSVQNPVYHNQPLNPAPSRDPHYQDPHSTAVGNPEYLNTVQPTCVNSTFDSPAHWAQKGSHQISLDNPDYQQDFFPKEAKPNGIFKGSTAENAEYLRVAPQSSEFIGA
Sequence of Fibroblast growth factor receptor 3 (Homo sapiens) (P22607 23-806 limits assumed): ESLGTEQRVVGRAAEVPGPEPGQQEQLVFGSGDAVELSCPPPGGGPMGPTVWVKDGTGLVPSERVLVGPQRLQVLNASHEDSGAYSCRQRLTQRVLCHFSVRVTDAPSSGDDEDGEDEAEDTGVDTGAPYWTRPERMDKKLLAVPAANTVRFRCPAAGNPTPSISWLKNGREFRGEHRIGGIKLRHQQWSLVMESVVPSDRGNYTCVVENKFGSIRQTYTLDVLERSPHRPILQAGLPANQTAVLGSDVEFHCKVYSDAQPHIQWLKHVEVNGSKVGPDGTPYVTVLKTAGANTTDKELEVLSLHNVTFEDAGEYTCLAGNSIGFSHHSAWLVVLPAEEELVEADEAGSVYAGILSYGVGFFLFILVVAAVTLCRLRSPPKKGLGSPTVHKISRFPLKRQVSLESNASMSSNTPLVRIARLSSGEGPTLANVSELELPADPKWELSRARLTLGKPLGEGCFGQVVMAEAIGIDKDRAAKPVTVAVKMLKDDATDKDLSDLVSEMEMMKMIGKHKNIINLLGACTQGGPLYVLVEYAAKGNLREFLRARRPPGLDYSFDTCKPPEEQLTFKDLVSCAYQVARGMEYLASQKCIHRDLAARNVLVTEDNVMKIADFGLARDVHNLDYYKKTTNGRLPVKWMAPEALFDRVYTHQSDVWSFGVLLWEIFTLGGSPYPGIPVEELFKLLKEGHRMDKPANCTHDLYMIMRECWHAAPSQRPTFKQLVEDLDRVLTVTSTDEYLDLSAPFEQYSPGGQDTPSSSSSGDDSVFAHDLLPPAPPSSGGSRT
Sequence of Mitogen-activated protein kinase 1 (Homo sapiens) (P28482 whole entry): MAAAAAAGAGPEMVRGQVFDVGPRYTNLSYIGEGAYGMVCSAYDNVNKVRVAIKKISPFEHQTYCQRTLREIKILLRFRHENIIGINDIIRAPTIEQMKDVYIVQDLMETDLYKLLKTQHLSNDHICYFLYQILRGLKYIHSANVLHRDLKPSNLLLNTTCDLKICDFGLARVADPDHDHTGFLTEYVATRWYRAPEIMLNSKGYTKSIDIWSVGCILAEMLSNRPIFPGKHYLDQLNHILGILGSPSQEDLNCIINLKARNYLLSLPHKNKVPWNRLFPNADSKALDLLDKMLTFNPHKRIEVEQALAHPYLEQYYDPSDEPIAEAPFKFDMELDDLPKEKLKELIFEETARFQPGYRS
Sequence of Hepatocyte growth factor receptor (P08581 whole entry): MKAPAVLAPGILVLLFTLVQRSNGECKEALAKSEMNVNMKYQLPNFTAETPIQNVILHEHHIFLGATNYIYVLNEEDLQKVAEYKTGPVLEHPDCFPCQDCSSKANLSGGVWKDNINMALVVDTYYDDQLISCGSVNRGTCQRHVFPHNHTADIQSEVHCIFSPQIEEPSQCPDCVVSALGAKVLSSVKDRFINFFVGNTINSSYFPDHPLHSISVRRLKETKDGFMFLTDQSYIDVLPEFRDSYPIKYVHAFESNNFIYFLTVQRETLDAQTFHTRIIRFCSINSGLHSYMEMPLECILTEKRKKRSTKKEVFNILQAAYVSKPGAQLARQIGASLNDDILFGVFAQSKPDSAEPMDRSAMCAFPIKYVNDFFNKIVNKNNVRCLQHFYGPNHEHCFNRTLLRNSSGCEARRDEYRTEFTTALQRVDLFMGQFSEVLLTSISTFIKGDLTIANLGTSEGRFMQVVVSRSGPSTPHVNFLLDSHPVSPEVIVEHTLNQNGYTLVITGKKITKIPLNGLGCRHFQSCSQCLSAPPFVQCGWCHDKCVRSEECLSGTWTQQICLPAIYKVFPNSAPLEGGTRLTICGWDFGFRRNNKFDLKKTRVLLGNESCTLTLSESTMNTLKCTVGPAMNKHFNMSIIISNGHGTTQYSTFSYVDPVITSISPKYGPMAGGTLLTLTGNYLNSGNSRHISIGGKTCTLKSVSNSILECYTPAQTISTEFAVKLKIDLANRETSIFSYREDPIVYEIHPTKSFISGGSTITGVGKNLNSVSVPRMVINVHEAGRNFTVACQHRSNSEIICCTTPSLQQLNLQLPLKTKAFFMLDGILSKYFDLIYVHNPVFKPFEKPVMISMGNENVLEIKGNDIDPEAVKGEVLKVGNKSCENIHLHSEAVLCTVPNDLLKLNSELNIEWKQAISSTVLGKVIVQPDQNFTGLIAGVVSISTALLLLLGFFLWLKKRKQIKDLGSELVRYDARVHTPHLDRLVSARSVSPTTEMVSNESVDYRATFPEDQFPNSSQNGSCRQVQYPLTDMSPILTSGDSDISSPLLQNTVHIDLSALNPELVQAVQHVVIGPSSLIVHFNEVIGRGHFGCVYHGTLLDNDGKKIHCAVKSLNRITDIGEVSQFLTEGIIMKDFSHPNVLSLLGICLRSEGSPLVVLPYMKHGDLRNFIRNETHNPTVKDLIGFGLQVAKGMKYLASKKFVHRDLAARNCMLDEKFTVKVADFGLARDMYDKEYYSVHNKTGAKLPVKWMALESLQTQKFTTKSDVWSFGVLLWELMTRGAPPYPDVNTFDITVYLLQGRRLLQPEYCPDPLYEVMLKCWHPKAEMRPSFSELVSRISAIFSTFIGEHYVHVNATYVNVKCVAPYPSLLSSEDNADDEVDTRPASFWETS
Sequence of Serine/threonine-protein kinase Nek2 (Homo sapiens) (P51955 whole entry): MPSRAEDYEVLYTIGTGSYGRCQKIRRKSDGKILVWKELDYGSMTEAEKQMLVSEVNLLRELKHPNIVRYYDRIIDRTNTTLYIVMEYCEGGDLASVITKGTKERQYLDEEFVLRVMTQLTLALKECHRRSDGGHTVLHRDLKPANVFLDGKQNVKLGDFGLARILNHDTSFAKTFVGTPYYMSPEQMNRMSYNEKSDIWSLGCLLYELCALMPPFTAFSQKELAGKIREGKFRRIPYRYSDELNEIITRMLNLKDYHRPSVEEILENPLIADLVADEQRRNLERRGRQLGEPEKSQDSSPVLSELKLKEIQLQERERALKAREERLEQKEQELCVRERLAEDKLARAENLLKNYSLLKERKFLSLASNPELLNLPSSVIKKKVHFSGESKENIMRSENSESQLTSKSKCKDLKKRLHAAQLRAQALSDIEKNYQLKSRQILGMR

C=CC(=O)Nc1cc2c(Oc3ccc(NC(=O)n4c(=O)c(-c5ccccc5)c(C)n4C)cc3F)cccc2cc1OC
inhibition (A549 [1]): Dose-Dependent Effect
IC50 (A549 [2]): 1060 nM
IC50 (NCI-H1975 [3]): 1130 nM
IC50 (PC-9): 1050 nM
viability at 1 µM (A549 [4]): 70.9%
Activity (A549 [5]): 10.4%
Activity (A549 [6]): 12.12%
viability at 2.5 µM (A549 [7]): 60.1%
Activity (A549 [8]): 10.44%
Activity (A549 [9]): 22.82%
Activity (A549 [10]): 6.65%
viability at 2.5 µM (NCI-H1975 [11]): 85.5%
Activity (L02 [12]): 0.21%
Activity (L02 [13]): 0.28%
Activity (L02 [14]): 4.53%
Activity (A549 [15]): 53.03%
Activity (A549 [16]): 35.49%
Activity (A549 [17]): 57.29%
Activity (A549 [18]): 10.98%
Activity (A549 [19]): Dose-Dependent Effect
inhibition [20]: > 90%
inhibition [21]: > 90%
inhibition [22]: inactive
inhibition [23]: inactive
inhibition [24]: inactive
Activity [25]: Non-Toxic
Activity [26]: Non-Toxic
Activity [27]: Non-Toxic
Activity [28]: Non-Toxic
Activity [29]: Non-Toxic
Activity [30]: Non-Toxic
inhibition in vivo at 40 mg/kg (A549 [31]): 25%
